Measurements as given in paper PMC7496508, “Modular Medical Imaging Agents Based on Azide–Alkyne Huisgen Cycloadditions: Synthesis and Pre‐Clinical Evaluation of ^18F‐Labeled PSMA‐Tracers for Prostate Cancer Imaging” (Chemistry (Weinheim an Der Bergstrasse, Germany), 2020).
Where “and” joins values, the source holds several entries; their conditions need not be identical. Identical values can stand only once.

Legend:
[1] = distribution coefficient logD, n-octanol/PBS; assay type: physicochemical
Procedure: page 19: Figure S3: HPLC purification of [18F]PSMA-MIC02 (A) and after 4 h (B). 5. Distribution coefficient LogD. […] cup. 100 µL of the formulated final solution of [18F]PSMA-MIC01 or [18F]PSMA-MIC02 was added and vortexed for 1 minute and centrifuged for 5 min at […]. The different layers were separated and 100 µL of each layer were measured on a γ-counter. Based on the counts per minute (CPM) of each fraction, the partition coefficient was measured with the following formula: log(CPMoctanol/CPMPBS). The obtained data are as followed. Table S2. Counts per minute (CPM) of the 3 indidicually measured triplicates of [18F]PSMA-MIC01 of n- octanol and PBS. Octanol (CPM) PBS (CPM) BLK (CPM) LogD Mean SD […] No 1.2 2823.43 2715328.33 93.59 -2.99 […] No 2.3 394.49 640463.84 93.59 -3.21 […] No 3.2 3690.69 2357291.58 50.84 -2.81 No 3.3 5848.38 3956671.48 52.31 -2.83 -3.01 0.22 18 (1 picture or pasted object on this page, not shown here)

[2] = radiotracer stability in formulation, radio-HPLC; assay type: physicochemical; settings: 10 % EtOH/PBS, 4 h
Procedure: Clinical translation requires higher amounts of radioactivity than those manually achievable, which are limited by radiation burden for the radiochemist. Therefore, the synthesis of [^18F]PSMA‐MIC01 was automated on a FlowSafe radiosynthesis module, a continuous‐flow microfluidics platform (see Supporting Information for details). [^18F]PSMA‐MIC01 was produced in an overall RCY of 21 % with an overall production time of 139 min (see Supporting Information for experimental details). The higher RCY can be explained by the use of the microfluidic set up for the [^18F]fluorination towards intermediate [^18F]9. Microfluidic systems have a higher surface‐to‐volume ratio which results in an increased heat transfer capacity compared to in‐batch syntheses.62 This enabled reduction of the effective reaction time of the [^18F]fluorination to 75 s with concomitant reduction of ^18F‐side‐products and increased the intermediary RCY of [^18F]9 to 42 % and overall RCY to 21 %. […] The measured lipophilicity (logD) in n‐octanol/PBS was −3.01±0.22 (see Supporting Information). […]
The stabilities of [18F]PSMA-MIC01 and [18F]PSMA-MIC02 were tested, to ensure the integrity of the tracer in solution. […] After purification and formulation into an injectable solution of 10 % EtOH in PBS, the radiotracer was analysed by HPLC again (B),which was repeated after 2 h (C) and 4 h (D). […]

Q: What does the source list for `O=C(O)CC[C@H](NC(=O)N[C@@H](CCCCNC(=O)c1ccc(-c2cn(CCOCCOCC[18F])nn2)cc1)C(=O)O)C(=O)O` [[^18F]PSMA‐MIC01]?
A: LogD, individual measurements ([1]; n-octanol/PBS pH 7.4, single measurements): -3.03 and -2.99 and -3.02 and -3.27 and -3.20 and -3.21 and -2.72 and -2.81 and -2.83; logD ([1]; n-octanol/PBS, pH 7.4, n-octanol/PBS pH 7.4, overall mean): -3.01 ± 0.22; stability of the radiotracer [2]: No degradation products could be detected
